# In patent US7192746B2, “α-Isomaltosyltransferase, process for producing the same and use thereof” (Kabushiki Kaisha Hayashibara Seibutsu Kagaku Kenkyujo, priority 2000, dated 2007):
# Assays:
# [1] = system: internal content of rat cecum; assay: Fermentation test; type: in vitro ADME
# Description: The internal content of rat cecum was collected by anesthetizing a Wister male rat with ether, allowing the rat to die, collecting the internal content under anaerobic conditions, and suspending the resultant with 4-fold volumes of a 0.1 M aqueous solution of sodium bicarbonate. Cyclotetrasaccharide was added in an amount of about 7% by weight to the weight of the internal contents of rat cecum, and the contents of cyclotetrasaccharide, which still remained just after and 12 hours after the addition of the internal contents, were quantified on gas chromatography.
# [2] = system: Escherichia coli IFO 3301 strain; assay: Assimilation test; type: cell-based; conditions: PYF medium with 0.5% saccharide, 37° C., four days, anaerobic
# mice = assay: Acute toxicity test; type: in vivo, mouse; conditions: oral
# Source text: Based on this, the LD50 of cyclotetrasaccharide was at least 50 g/kg mouse body weight.
# [3] = system: α-isomaltosyl-transferring enzyme from Arthrobacter globiformis A19; assay: Action on saccharides (substrates, TLC); type: biochemical; set-up: key: −: there was found no substrate change before and after the enzymatic reaction; +: there were found both the reduction of substrate and the formation of cyclotetrasaccharide after the enzymatic reaction; conditions: partially purified enzyme, 2 units/g substrate, 2% (w/v) substrate, 30° C., pH 6.0, 24 hours
# Procedure, shortened: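 Each candidate saccharide, from malto- and isomalto-oligosaccharides to cyclodextrins, starch, pullulan and dextran, was prepared at 2% (w/v). Two units/g substrate of enzyme were added, then the mixture was held at pH 6.0, 30° C., 24 hours. Samples were then analysed by silica gel TLC.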
# [4] = system: α-isomaltosyl-transferring enzyme from Arthrobacter ramosus S1; assay: Action on saccharides (substrates, TLC); type: biochemical; set-up: key: −: there was found no substrate change before and after the enzymatic reaction; +: there were found both the reduction of substrate and the formation of cyclotetrasaccharide after the enzymatic reaction; conditions: 2 units/g substrate, 2% (w/v) substrate, 30° C., pH 6.0, 24 hours
# Procedure, shortened: (§1)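 Purified enzyme (partially purified for A. globiformis A19) at 2 units/g substrate acted on each saccharide at 2% (w/v), pH 6.0, 30° C., 24 h. Pre- and post-reaction mixtures ran on silica gel TLC in n-butanol/pyridine/water (6:4:1). Total sugars were stained by sulfuric acid-methanol and reducing sugars by diphenylamine-aniline.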
# [5] = system: α-isomaltosyl-transferring enzyme from Bacillus globisporus C11; assay: Action on saccharides (substrates, TLC); type: biochemical; set-up: key: −: there was found no substrate change before and after the enzymatic reaction; +: there were found both the reduction of substrate and the formation of cyclotetrasaccharide after the enzymatic reaction; conditions: 2 units/g substrate, 2% (w/v) substrate, 30° C., pH 6.0, 24 hours
# Procedure, shortened: as §1
# [6] = system: α-isomaltosyl-transferring enzyme from Bacillus globisporus C9; assay: Action on saccharides (substrates, TLC); type: biochemical; set-up: key: −: there was found no substrate change before and after the enzymatic reaction; +: there were found both the reduction of substrate and the formation of cyclotetrasaccharide after the enzymatic reaction; conditions: 2 units/g substrate, 2% (w/v) substrate, 30° C., pH 6.0, 24 hours
# Procedure, shortened: as §1
# [7] = system: α-isomaltosyl-transferring enzyme from Bacillus globisporus N75; assay: Action on saccharides (substrates, TLC); type: biochemical; set-up: key: −: there was found no substrate change before and after the enzymatic reaction; +: there were found both the reduction of substrate and the formation of cyclotetrasaccharide after the enzymatic reaction; conditions: 2 units/g substrate, 2% (w/v) substrate, 30° C., pH 6.0, 24 hours
# Procedure, shortened: as §1
# salivary amylase = biological target: T1, salivary amylase (Homo sapiens, UniProt P0DUB6); assay: Digestion test in vitro
# T1 sequence (P0DUB6 16-511): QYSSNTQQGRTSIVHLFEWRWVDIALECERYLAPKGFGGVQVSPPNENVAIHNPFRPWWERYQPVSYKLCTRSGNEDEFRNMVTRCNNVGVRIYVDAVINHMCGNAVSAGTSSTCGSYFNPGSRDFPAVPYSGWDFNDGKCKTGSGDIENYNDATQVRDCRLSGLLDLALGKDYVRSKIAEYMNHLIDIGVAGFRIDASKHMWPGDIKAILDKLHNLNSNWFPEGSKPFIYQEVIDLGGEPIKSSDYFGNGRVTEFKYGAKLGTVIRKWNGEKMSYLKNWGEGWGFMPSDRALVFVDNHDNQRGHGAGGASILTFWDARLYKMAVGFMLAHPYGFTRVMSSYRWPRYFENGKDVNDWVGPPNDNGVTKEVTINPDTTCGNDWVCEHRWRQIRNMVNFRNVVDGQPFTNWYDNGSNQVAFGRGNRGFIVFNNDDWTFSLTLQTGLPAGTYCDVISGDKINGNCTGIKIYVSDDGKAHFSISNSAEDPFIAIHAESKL
# Digestion test in vitro = conditions: Synthetic gastric juice
# [8] = system: small intestinal mucosal enzyme; assay: Digestion test in vitro
SMILES,Cyclotetrasaccharide remained without being fermented ([1]; 12 hours) [%],Content of cyclotetrasaccharide remaining ([1]; 12 hours after the addition),Content of cyclotetrasaccharide remaining ([1]; just after the addition),Assimilability [2],Death at highest possible dose (mice),LD50 (mice),"Enzymatic action for forming cyclotetrasaccharide, Enzyme of Strain A19 [3]","Enzymatic action for forming cyclotetrasaccharide, Enzyme of Strain S1 [4]","Enzymatic action for forming cyclotetrasaccharide, Enzyme of Strain C11 [5]","Enzymatic action for forming cyclotetrasaccharide, Enzyme of Strain C9 [6]","Enzymatic action for forming cyclotetrasaccharide, Enzyme of Strain N75 [7]",Decomposition percentage by digestive enzyme (salivary amylase) [%],Decomposition percentage by digestive enzyme (Digestion test in vitro) [%],Decomposition percentage by digestive enzyme [8] [%]
"OCC1OC2OCC3O[C@H](O[C@H]4C(O)C(CO)OC(OCC5O[C@H](O[C@@H](C1O)C2O)C(O)C(O)[C@@H]5O)C4O)C(O)C(O)[C@@H]3O (stereo partly drawn) [Cyclotetrasaccharide, cyclo{→6)-α-D-glucopyranosyl-(1→3)-α-D-glucopyranosyl-(1→6)-α-D-glucopyranosyl-(1→3)-α-D-glucopyranosyl-(1→}]",93,63.0 mg per one gram of the internal contents of rat cecum,68.0 mg per one gram of the internal contents of rat cecum,− (negative (−) when the post culture had a pH of 6.0 or higher),did not induce death of mouse,at least 50 g/kg mouse body weight,,,,,,,,
"OC[C@@H](O)[C@@H](O[C@H]1O[C@H](CO)[C@@H](O)[C@H](O)[C@H]1O)[C@H](O)[C@@H](O)CO [Maltitol, maltitol]",,,,,,,−,−,−,−,−,0.0,0.0,4.0
